Measured values as given in patent US20230028658A1, “EXPANDED DOSAGE REGIMENS FOR INTEGRIN INHIBITORS” (Pliant Therapeutics, Inc., priority 2021, published 2023).
pIC50: −log10 of the molar value. Like-named read-outs stand apart in the source and are kept apart here.

Columns and labels:
[1] = tested on: IPF-derived lung fibroblasts; experiment: cell adhesion in IPF-derived lung fibroblasts (FIG. 3B); assay type: cell-based
[2] = tested on: human bronchial epithelial cells; experiment: LAP adhesion binding assay, normal human bronchial epithelial cells (xCELLigence cell index); assay type: cell-based; settings: FIG. 3A; cell index (electrical impedance)
Method: Two latency associated peptide (LAP) adhesion binding assays were devised using primary human lung cells, including normal (healthy) human bronchial epithelial cells and human lung fibroblasts (healthy and IPF).
Human bronchial epithelial cells are known to express αvβ6 integrin in culture. Human bronchial epithelial cells were prepared for the assay by dissociation with trypsin/EDTA and were then seeded at 20,000 cells per well on 96 well plates (ACEA Bioscience E-plate View, Acea Biosciences; San Diego, Calif.) previously coated with 5 μg/ml of recombinant human LAP (R&D Systems; Minneapolis, Minn.) and blocked with 4% bovine serum albumin. Cell index (electrical impedance) was measured to assess cell attachment/spreading every 3 minutes for 24 hours at 37° C./5% CO2 using the xCELLigence RTCA MP Instrument (Acea Biosciences; San Diego, Calif.).

[3] = tested on: lung Col1a1 expression; experiment: Precision cut lung slices, chronic bleomycin, comparison with nintedanib and pirfenidone (Example B10); assay type: cell-based, Mice (C57BL/6); settings: chronic bleomycin PCLS, 7 days culture, vs DMSO vehicle; FIG. 6A
Method: Mice (C57BL/6) were administered 3 U/kg of bleomycin (Teva Pharmaceuticals; North Wales, Pa.) on Day 0 and 1 U/kg of bleomycin on days 14, 28, 42 and 56 via oropharyngeal aspiration while under anesthesia. At day 70, 14 days following the final bleomycin insult, precision cut lung slices were obtained. Following euthanization, 2% low gelling temp agarose was injected into the mouse lungs via the trachea. […] The lobes were then subjected to precision slicing to obtain samples for culture using a microtome (Compresstome VF-300-0Z, Precisionary; Greenville, N.C.). Individual slices were distributed in a multiwell culture plate and cultured for 7 days under control (DMSO) and test compound conditions. The viability of the slices over the course of culturing was confirmed by WST-1 assay of mitochondrial activity.
During the culture period, slices in the control group were treated with DMSO and slices in the test group were treated with a DMSO solution of one of: compound 5; nintedanib; pirfenidone; a combination of nintedanib and compound 5; a combination of pirfenidone and compound 5; or the small molecule ALK5 inhibitor. Compound 5 was […] effective to equal or exceed its respective IC50 values at αvβ6 and αvβ1. […] Nintendanib and pirfenidone were analyzed at concentrations 10× their reported therapeutic concentrations.

[4] = Binding to plasma proteins, equilibrium dialysis; assay type: in vitro ADME; settings: human, plasma of dosed study participants, oral, participants' plasma Day 7
Method: Binding to plasma proteins was determined in participants' plasma (Day 7) using a qualified equilibrium dialysis protocol. The mean % unbound was 0.292%±0.067%, and ranged from 0.182% to 0.38% across the 20-mg cohort participants. The mean % unbound was 0.318%+0.065% and ranged from 0.22% to 0.376% across the 40-mg cohort participants. Due to the unexpected amount of plasma protein binding in these participants, it was decided to examine higher doses of the dual […] inhibitor (Compound 5) to determine whether such higher doses would compensate for the high protein binding and provide greater amounts of free drug.

[5] = Plasma PK, Example B15 Part 1; assay type: in vivo; settings: human, initial results; for Cmax / AUC(0-t): Day 7, geometric mean; for AUC(0-t): read-out: AUC0-24, ng × h/mL; for Tmax: Day 7, median
Method: This study was designed as a randomized, double-blind, placebo-controlled study in 48 healthy participants conducted in 2 parts. Part 1 has completed clinical conduct, and Part 2 is ongoing. In Part 1, 24 participants were randomized 1:1:1 to receive Compound 5 80 mg QD, Compound 5 160 mg QD, or placebo QD. A safety review committee reviewed the safety and PK data from Part 1 and recommended doses for Part 2. In Part 2, 24 participants were randomized 1:1:1 to receive Compound 5 320 mg QD (Compound 5 in the morning and matched placebo in the afternoon), Compound 5 160 mg twice daily (BID), or placebo BID. In both parts, samples of BALF were collected from the middle lobe or lingula via bronchoscopy prior to dosing (Day −1) and at 6 and 24 hours post morning dose on Day 7. BALF samples were assessed for TGF-β receptor kinase activity (pSMAD2/SMAD2) in pelleted cells (primarily alveolar macrophages) and additional cell material was used to measure TGF-β signaling pathway-related gene expression levels. Plasma samples were collected to measure Compound 5 concentrations and determine protein binding. Safety was monitored via open-ended AE inquiry and clinical chemistry, hematology, vital sign, and 12-lead ECG parameters.

[6] = target: αvβ6 (Homo sapiens, UniProt P06756+P18564); experiment: IC50 of αvβ6 adjusted for protein binding
[7] = Safety at the higher doses of Examples B14 and B15; assay type: in vivo, human; settings: healthy participants, higher doses of Examples B14 and B15 (80-640 mg)
Method: This study was a single-center, randomized, double-blind, ascending dose, placebo-controlled study in healthy participants. Each cohort included 10 participants (8 active, 2 placebo). Study participants received single ascending doses (SAD) of Compound 5 of 120, 160, 240, 320, 480, and 640 mg and multiple ascending doses (MAD) of Compound 5 of 80, 120, 160, 240, and 320 mg. Two cohorts of participants at 160 mg were studied in the MAD phase of the study.
This study was designed as a randomized, double-blind, placebo-controlled study in 48 healthy participants conducted in 2 parts. Part 1 has completed clinical conduct, and Part 2 is ongoing. In Part 1, 24 participants were randomized 1:1:1 to receive Compound 5 80 mg QD, Compound 5 160 mg QD, or placebo QD. A safety review committee reviewed the safety and PK data from Part 1 and recommended doses for Part 2. […] BALF samples were assessed for TGF-β receptor kinase activity (pSMAD2/SMAD2) in pelleted cells (primarily alveolar macrophages) and additional cell material was used to measure TGF-β signaling pathway-related gene expression levels. […] Safety was monitored via open-ended AE inquiry and clinical chemistry, hematology, vital sign, and 12-lead ECG parameters.

Sequence of αvβ6 (P06756 31-1048): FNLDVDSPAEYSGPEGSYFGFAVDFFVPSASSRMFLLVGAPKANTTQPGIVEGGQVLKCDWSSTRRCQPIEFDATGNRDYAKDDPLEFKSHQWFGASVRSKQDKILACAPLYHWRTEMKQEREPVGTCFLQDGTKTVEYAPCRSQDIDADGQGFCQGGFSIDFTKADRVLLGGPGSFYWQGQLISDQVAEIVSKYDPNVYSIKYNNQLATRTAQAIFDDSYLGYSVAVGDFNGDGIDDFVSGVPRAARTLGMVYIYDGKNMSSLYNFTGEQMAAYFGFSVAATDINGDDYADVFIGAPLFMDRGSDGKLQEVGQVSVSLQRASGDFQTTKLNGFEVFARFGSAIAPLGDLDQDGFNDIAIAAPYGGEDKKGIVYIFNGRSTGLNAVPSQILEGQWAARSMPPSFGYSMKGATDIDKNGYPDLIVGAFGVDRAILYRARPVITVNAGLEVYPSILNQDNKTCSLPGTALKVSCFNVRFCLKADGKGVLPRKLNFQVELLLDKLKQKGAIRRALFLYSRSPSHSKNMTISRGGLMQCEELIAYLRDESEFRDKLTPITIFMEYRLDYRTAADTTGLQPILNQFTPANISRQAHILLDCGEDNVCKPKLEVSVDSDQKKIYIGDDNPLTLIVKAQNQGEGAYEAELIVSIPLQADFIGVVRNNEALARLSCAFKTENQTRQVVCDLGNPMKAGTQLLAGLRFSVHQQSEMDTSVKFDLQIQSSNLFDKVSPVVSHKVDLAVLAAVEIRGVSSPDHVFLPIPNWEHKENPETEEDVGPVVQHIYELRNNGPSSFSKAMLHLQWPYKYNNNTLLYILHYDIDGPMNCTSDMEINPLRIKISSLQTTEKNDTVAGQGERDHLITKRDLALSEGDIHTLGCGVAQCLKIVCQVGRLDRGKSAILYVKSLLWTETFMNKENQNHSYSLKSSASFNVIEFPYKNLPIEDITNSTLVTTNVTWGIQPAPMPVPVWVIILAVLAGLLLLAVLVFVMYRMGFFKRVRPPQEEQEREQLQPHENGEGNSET
Sequence of αvβ6 (P18564 22-788): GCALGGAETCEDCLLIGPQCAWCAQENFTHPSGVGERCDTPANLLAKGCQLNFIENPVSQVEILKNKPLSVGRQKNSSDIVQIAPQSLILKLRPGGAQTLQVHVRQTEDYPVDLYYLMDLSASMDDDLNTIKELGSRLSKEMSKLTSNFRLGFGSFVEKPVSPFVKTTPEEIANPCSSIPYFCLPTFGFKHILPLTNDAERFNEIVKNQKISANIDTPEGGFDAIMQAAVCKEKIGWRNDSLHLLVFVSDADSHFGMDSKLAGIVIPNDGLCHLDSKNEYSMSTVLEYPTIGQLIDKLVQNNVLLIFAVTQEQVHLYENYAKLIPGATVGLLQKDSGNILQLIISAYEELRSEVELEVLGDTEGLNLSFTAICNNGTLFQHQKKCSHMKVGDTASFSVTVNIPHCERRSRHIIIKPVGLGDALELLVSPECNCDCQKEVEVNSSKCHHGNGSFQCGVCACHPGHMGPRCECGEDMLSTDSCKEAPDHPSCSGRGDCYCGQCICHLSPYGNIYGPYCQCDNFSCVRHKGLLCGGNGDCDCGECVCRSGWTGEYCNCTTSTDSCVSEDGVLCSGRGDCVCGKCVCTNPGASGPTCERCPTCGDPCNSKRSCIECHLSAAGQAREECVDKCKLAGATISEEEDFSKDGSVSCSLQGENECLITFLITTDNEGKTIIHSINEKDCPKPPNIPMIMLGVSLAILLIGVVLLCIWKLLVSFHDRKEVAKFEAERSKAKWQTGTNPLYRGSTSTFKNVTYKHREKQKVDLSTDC

fraction unbound ([4]; 20 mg, 20-mg cohort, read-out: % unbound, range across participants): 0.00182 to 0.0038
fraction unbound ([4]; 20 mg, 20-mg cohort, read-out: mean % unbound): 0.00292
fraction unbound ([4]; 40 mg, 40-mg cohort, read-out: % unbound, range across participants): 0.0022 to 0.00376
fraction unbound ([4]; 40 mg, 40-mg cohort, read-out: mean % unbound): 0.00318
Cmax ([5]; 80 mg QD): 1510 ng/mL
AUC(0-t) ([5]; 80 mg QD): 25400 ng·h/mL
Tmax ([5]; 80 mg QD): 6 h
Cmax ([5]; 160 mg QD): 2990 ng/mL
AUC(0-t) ([5]; 160 mg QD): 49900 ng·h/mL
Tmax ([5]; 160 mg QD): 5 h
pIC50 [6]: 8.00
SMILES: COCCN(CCCCc1ccc2c(n1)NCCC2)CC[C@H](Nc1ncnc2ccccc12)C(=O)O [Compound 5, (S)-4-((2-methoxyethyl) (4-(5,6,7,8-tetrahydro-1,8-naphthyridin-2-yl)butyl)amino)-2-(quinazolin-4-ylamino) butanoic acid]
cell adhesion in the IPF-derived lung fibroblasts [1]: substantially inhibited
inhibition of normal bronchial epithelial cell adhesion to LAP [2]: substantially inhibited
lung slice Col1a1 expression [3]: substantial, statistically significant (p<0.01 vs vehicle) decrease
adverse effects [7]: no significant adverse effects
